# Reference: ChEMBL document CHEMBL5143576, “Tigliane Diterpenoids with Larvicidal, Antifungal, and α-Glucosidase Inhibitory Activities from Croton damayeshu” (J Nat Prod, 2022)
# Legend:
# Type in all cases: functional
# Candida albicans [1] = test: Antifungal activity against Fluconazole- resistant Candida albicans incubated for 24 hrs by microbroth dilution method
# Plutella xylostella = test: Larvicidal activity against Plutella xylostella assessed as mortality and measured upto 4 days; settings: 96 h, time <= 4 day
# Candida albicans [2] = test: Antifungal activity against Fluconazole- resistant Candida albicans incubated for 24 hrs in presence of fluconazole by microbroth dilution method
# Candida albicans [3] = test: Antifungal activity against Candida albicans incubated for 24 hrs by microbroth dilution method
structure (smiles),measurement,setting,value
CCCCC/C=C\CCC(=O)O[C@@]12[C@H](OC(=O)[C@@H](C)CC)[C@@H](C)[C@@]3(O)[C@@H](C(=O)C(CO)=C[C@]4(O)C(=O)C(C)=C[C@@H]34)[C@@H]1C2(C)C,MIC50,Candida albicans [1],200 µg/mL
same,LC50,Plutella xylostella,190 nM
same,MIC50,Candida albicans [2],63.4 µg/mL
CC[C@H](C)C(=O)O[C@@]12[C@H](OC(=O)c3ccccc3)[C@@H](C)[C@@]3(O)[C@@H](C=C(CO)C[C@]4(O)C(=O)C(C)=C[C@@H]34)[C@@H]1C2(C)C,MIC50,Candida albicans [2],5.1 µg/mL
CC/C=C\C/C=C\CCC(=O)O[C@@]12[C@H](OC(=O)[C@@H](C)CC)[C@@H](C)[C@@]3(O)[C@@H](C(=O)C(CO)=C[C@]4(O)C(=O)C(C)=C[C@@H]34)[C@@H]1C2(C)C,MIC50,Candida albicans [1],159 µg/mL
same,LC50,Plutella xylostella,160 nM
same,MIC50,Candida albicans [2],11.9 µg/mL
CC[C@H](C)C(=O)O[C@@H]1[C@@H](C)[C@@]2(O)[C@@H](C(=O)C(CO)=C[C@]3(O)C(=O)C(C)=C[C@@H]23)[C@@H]2C(C)(C)[C@]12OC(=O)[C@@H](C)CC,MIC50,Candida albicans [1],15.1 µg/mL
same,MIC50,Candida albicans [2],14 µg/mL
C/C=C(\C)C(=O)O[C@@H]1[C@@H](C)[C@@]2(O)[C@@H](C(=O)C(CO)=C[C@]3(O)C(=O)C(C)=C[C@@H]23)[C@@H]2C(C)(C)[C@]12OC(=O)CC/C=C\CCCCC,LC50,Plutella xylostella,260 nM
CCCCCCCCCC(=O)O[C@@]12[C@H](OC(=O)[C@@H](C)CC)[C@@H](C)[C@@]3(O)[C@@H](C(=O)C(CO)=C[C@]4(O)C(=O)C(C)=C[C@@H]34)[C@@H]1C2(C)C,MIC50,Candida albicans [1],161 µg/mL
same,MIC50,Candida albicans [2],5.18 µg/mL
CCCCCCCC(=O)O[C@@]12[C@H](OC(=O)[C@@H](C)CC)[C@@H](C)[C@@]3(O)[C@@H](C(=O)C(CO)=C[C@]4(O)C(=O)C(C)=C[C@@H]34)[C@@H]1C2(C)C,MIC50,Candida albicans [1],114 µg/mL
same,MIC50,Candida albicans [2],50.5 µg/mL
Cc1cc(C(F)(C(F)(F)F)C(F)(F)F)ccc1NC(=O)c1cccc(I)c1C(=O)NC(C)(C)CS(C)(=O)=O [FLUBENDIAMIDE],LC50,Plutella xylostella,140 nM
OC(Cn1cncn1)(Cn1cncn1)c1ccc(F)cc1F [FLUCONAZOLE],MIC50,Candida albicans [3],4.4 µg/mL
